Measured values reported in paper PMC12636382, “Human and zebrafish mineralocorticoid receptors reporter cell assays to assess the activity of chemicals” (iScience, 2025).
Where “and” joins values, the source holds several entries; their conditions need not be identical. Identical values can stand only once. Like-named read-outs stand apart in the source and are kept apart here.

Assays:
[1] = molecular target: T1, human MR (hMR) (Homo sapiens, UniProt P08235); test: UG5LN-GAL4-hMR luciferase reporter cell assay (agonism and antagonism tests); assay type: cell-based; conditions: for % min act: % of maximal luciferase activity induced by 10^−8 M aldosterone
T1 construct: hMR(LBD) (G671-K894) and zfMR(LBD) (L668-K970) have been amplified by PCR; expressed in transfected cells
T1 sequence (P08235 671-984 limits assumed): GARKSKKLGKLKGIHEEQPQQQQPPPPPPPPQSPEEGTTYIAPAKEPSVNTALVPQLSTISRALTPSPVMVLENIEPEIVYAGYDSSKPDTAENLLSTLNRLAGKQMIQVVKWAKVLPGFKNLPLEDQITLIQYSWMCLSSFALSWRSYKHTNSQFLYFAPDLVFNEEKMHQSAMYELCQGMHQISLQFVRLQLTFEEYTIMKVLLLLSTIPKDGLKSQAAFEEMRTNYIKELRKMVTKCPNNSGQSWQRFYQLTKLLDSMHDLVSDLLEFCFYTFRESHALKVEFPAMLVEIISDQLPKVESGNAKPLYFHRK
Procedure: (§1) The U2OS cells used to establish the MR reporter cell lines were obtained from and verified by ECACC (UK Health Security Agency, Porton Down, Salisbury, UK). The strategy used has been described previously to establish other NR-based cell lines.[42] First, the different pSG5-GAL4(DBD)-MRs (LBD) and (GAL4RE)5βGlob-Luc-SVNeo plasmids were tested by transient transfections in U2OS. Then, the UG5LN-GAL4-hMR and UG5LN-GAL4-zfMR clonal cells were generated in two steps. The first step was to establish clonal UG5LN cells by a stable transfection of U2OS cells, considered as steroid receptor negative, with the plasmid (GAL4RE)5βGlob-Luc-SVNeo. The second step consisted of the transfection of UG5LN cells with the plasmids pSG5-GAL4(DBD)-hMR(LBD)-puro, pSG5-GAL4(DBD)-hMRT870L(LBD)-puro or pSG5-GAL4(DBD)-zfMR(LBD)-puro, to generate UG5LN-GAL4-hMR, UG5LN-GAL4-hMRT870L and UG5LN-GAL4-zfMR clonal cells, respectively. Stable cell clones were selected in the presence of puromycin 0.5 μg/mL and G418 1 mg/mL. For each receptor, 5 to 10 clones were chosen for their ligand-induced luciferase expression. The clones were amplified and luciferase expression was checked at several passages. For each receptor, the clone with the best induction of luciferase activity was selected and used for the screening of the different chemicals. The stability and the inducibility of luciferase expression were checked during at least 20 passages (20 weeks).
(§2) To perform the reporter gene assay, cells were seeded in 96-wells white transparent culture plates (Greiner bio-one 655098CellStar; Dutscher, Brumath, France) at a density of 60,000 cells per well in 150 μL of culture medium and incubated at 37°C and 5% CO2 for 24 h. Then, after the attachment period, medium was removed and cells were exposed to increasing dilutions of the tested compounds in the experimental medium (DMSO; final concentration 0.1% v/v for chemicals and 0.3% v/v for water sample extracts) and incubated at 37°C and 5% CO2. After 24 h, medium was removed and replaced with 50 μL/well of experimental medium containing 0.3 mM luciferin. The luminescence signal was monitored in intact live cells for 2 s per well using a MicroBeta Wallac luminometer (PerkinElmer, Courtaboeuf, France). All experiments were performed in quadruplicate.
(§3) The quantification and statistical analysis are integral parts of the software used (GraphPad Prism 10, GraphPad Software Inc). The compounds were tested at different concentrations in at least three independent experiments. In each experiment, the compounds were tested in quadruplicate for each concentration, and the data were expressed as averages of the quadruplicates with their standard deviation to obtain a single value for that experimental series. Then, individual dose-response curves for each chemical were fitted from the averages of the three individual experiments using the sigmoidal dose-response function of the graphics and statistics software program GraphPad. Specifically, GraphPad employs nonlinear regression with the least squares method to fit the data to a sigmoidal function (based on the Hill equation). This method is used to determine the optimal parameter values, such as the Half Maximal Effective concentration (EC50) for agonist and the Half Maximal Inhibitory Concentration (IC50) for antagonist. […] Once the best-fit curve was obtained, the confidence intervals (e.g., 95% CI) for these parameters were estimated based on the uncertainty (variance) derived from the regression model, and the lower and upper 95% confidence limits of EC50s and IC50s were reported.

[2] = molecular target: zebrafish MR (zfMR) (Danio rerio, UniProt A6YIH7); test: UG5LN-GAL4-zfMR luciferase reporter cell assay (agonism and antagonism tests); assay type: cell-based; conditions: for EC50: agonism test, chemical alone, mean of at least three experiments, read-out: EC50
Procedure: as §1, §2, §3

[3] = environmental chemicals at 10^−5 M, antagonism test
[4] = environmental chemicals, antagonism test with aldosterone 10^−9 M, UG5LN-GAL4-hMR, read-out: IC50
[5] = environmental chemicals, antagonism test with aldosterone 0.5 10^−9 M, UG5LN-GAL4-zfMR, read-out: IC50
[6] = antagonism test with aldosterone 10^−9 M, at 10^−5, 10^−6 or 10^−7 M depending on chemical
[7] = antagonism test, in presence of aldosterone 10^−9 M, UG5LN-GAL4-hMR cells, read-out: IC50
[8] = antagonism test, in presence of aldosterone 0.5 10^−9 M, UG5LN-GAL4-zfMR cells, read-out: IC50
[9] = in words, UG5LN-GAL4-zfMR cells

zebrafish MR (zfMR), sequence (A6YIH7 entry or part of it): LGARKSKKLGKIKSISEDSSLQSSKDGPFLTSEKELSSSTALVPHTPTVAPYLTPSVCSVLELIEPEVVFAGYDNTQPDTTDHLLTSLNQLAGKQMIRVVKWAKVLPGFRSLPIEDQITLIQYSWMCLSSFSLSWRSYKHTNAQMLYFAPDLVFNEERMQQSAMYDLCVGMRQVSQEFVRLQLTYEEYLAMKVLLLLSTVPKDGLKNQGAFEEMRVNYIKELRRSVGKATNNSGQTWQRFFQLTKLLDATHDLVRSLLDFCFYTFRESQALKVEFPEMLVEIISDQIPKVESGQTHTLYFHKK

In the case of CCCOCCN(C(=O)CCl)c1c(CC)cccc1CC [pretilachlore], the “% min act” value [1, 3] is reported as 21.5 ± 1.7%, the IC50 [1, 4] is reported as 3510 nM and the “% min act” value [2] is reported as 21 ± 0.7%. For the same molecule, the IC50 [2, 5] was 4710 nM.

In the case of C[C@]12CCC(=O)C[C@@H]1CC[C@@H]1[C@@H]2CC[C@]2(C)[C@@H](O)CC[C@@H]12 [dihydrotestosterone], the “activity profile on hMR (agonist / partial agonist / antagonist)” value [1] is reported as “full antagonists”, the IC50 ([1]; IC50) is reported as 60 nM and the “activity profile on zfMR (agonist / partial agonist / antagonist)” value [2] is reported as “full antagonists”. The IC50 ([2]; IC50) was 35 nM and 34.9 nM.

In the case of CC(=O)[C@H]1CC[C@H]2[C@@H]3CC=C4C[C@@H](O)CC[C@]4(C)[C@H]3CC[C@]12C [pregnenolone], the “% min act” value [1, 6] is reported as 6.0 ± 1%, the IC50 [1, 7] is reported as 68 nM and 67.7 nM and the “activity profile on hMR (agonist / partial agonist / antagonist)” value ([1]; in words, UG5LN-GAL4-hMR cells) is reported as “full antagonists”. For the same molecule, the “% min act” value [2] was 4.1 ± 0.2%, the IC50 [2, 8] was 166 nM and the “activity profile on zfMR (agonist / partial agonist / antagonist)” value [2, 9] was “full antagonists”.

For C[C@]12CCC(=O)C=C1C=C[C@@H]1[C@@H]2CC[C@@]2(C)[C@H]1CC[C@@]21CCC(=O)O1 [canrenone], the IC50 [1, 7] was 17 nM and 16.7 nM, the “activity profile on hMR (agonist / partial agonist / antagonist)” value ([1]; in words, UG5LN-GAL4-hMR cells) was “full antagonists” and the IC50 [2, 8] was 18 nM and 18.4 nM. The “activity profile on zfMR (agonist / partial agonist / antagonist)” value [2, 9] was “full antagonists”.

O=S1OCC2C(CO1)C1(Cl)C(Cl)=C(Cl)C2(Cl)C1(Cl)Cl (stereo not shown) [endosulfan] showed an IC50 [1, 4] of 1010 nM and an IC50 [2, 5] of 8400 nM.

CC(C)(C)CC(C)(C)c1ccc(O)cc1 [4-tert-octylphenol] gave an IC50 [1, 4] of 2120 nM and an IC50 [2, 5] of 15800 nM.

With CCC(=O)[C@@]1(C)CC[C@H]2[C@@H]3CCC4=CC(=O)CCC4=C3CC[C@@]21C [promegestone] the IC50 [1, 7] was 169 nM, the “activity profile on hMR (agonist / partial agonist / antagonist)” value ([1]; in words, UG5LN-GAL4-hMR cells) was “full antagonists” and the IC50 [2, 8] was 291 nM. The “activity profile on zfMR (agonist / partial agonist / antagonist)” value [2, 9] was “full antagonists”.

CC#C[C@]1(O)CC[C@H]2[C@@H]3CCC4=CC(=O)CCC4=C3[C@@H](c3ccc(N(C)C)cc3)C[C@@]21C [mifepristone] was tested, and the “activity profile on hMR (agonist / partial agonist / antagonist)” value ([1]; in words, UG5LN-GAL4-hMR cells) was “full antagonists”, the IC50 [2, 8] was 1050 nM and the “activity profile on zfMR (agonist / partial agonist / antagonist)” value [2, 9] was “full antagonists”.

CC(=O)[C@H]1CC[C@H]2[C@@H]3CCC4=CC(=O)CC[C@]4(C)[C@H]3CC[C@]12C [progesterone] was tested, and the “activity profile on zfMR (agonist / partial agonist / antagonist)” value [2, 9] was “partially activate”.

With ClC(Cl)=C(c1ccc(Cl)cc1)c1ccccc1Cl [2,4′-DDE, 2,4′DDE] the “% min act” value [1, 3] was 8.3 ± 1.2%, the IC50 [1, 4] was 470 nM and the “% min act” value [2] was 34.8 ± 6.6%. For the same molecule, the IC50 [2, 5] was 6900 nM.

With CC(C)(c1ccc(O)cc1)c1ccc(O)cc1 [bisphenol A, Bisphenol A] the IC50 [1, 4] was 2280 nM and the IC50 [2, 5] was 5150 nM.

“17α-hydroxyprogesterone [17α-hydroxy progesterone]” was tested, and the “% max act” value [2] was 97.6 ± 1.2%, the EC50 ([2]; UG5LN-GAL4-zfMR cells, listed as 17-α-hydroxy progesterone) was 0.24 nM and the EC50 ([2]; UG5LN-GAL4-zfMR cells, listed as 17α-hydroxyprogesterone) was 0.2 nM. The “activity profile on zfMR (agonist / partial agonist / antagonist)” value [2, 9] was “full agonists”.

For C=CC(C)(O)C(=O)Nc1cc(Cl)cc(Cl)c1 (stereo not shown) [vinclozoline M2, Vinclozolin M2], the “% min act” value [1, 3] was 28 ± 3.3%, the IC50 [1, 4] was 5960 nM and the “% min act” value [2] was 31 ± 0.5%. The IC50 [2, 5] was 7000 nM.

In the case of C[C@]12CCC(=O)C=C1CC[C@@H]1[C@@H]2CC[C@@]2(C)[C@H]1CC[C@]2(O)C(=O)CO [11-deoxycortisol], the IC50 [1, 7] is reported as 4.4 nM and 4.41 nM, the “activity profile on hMR (agonist / partial agonist / antagonist)” value ([1]; in words, UG5LN-GAL4-hMR cells) is reported as “complete antagonists” and the EC50 ([2]; UG5LN-GAL4-zfMR cells) is reported as 0.73 nM. The “activity profile on zfMR (agonist / partial agonist / antagonist)” value [2, 9] was “partially activate” and the “REP (relative potency)” value ([2]; ratio of EC50 values aldosterone/chemical, aldosterone set at 1) was 0.41.

For Oc1ccc(C(c2ccc(O)cc2)C(Cl)(Cl)Cl)cc1 [HPTE], the “% min act” value [1, 3] was 12.3 ± 1.5%, the IC50 [1, 4] was 2060 nM and the “% min act” value [2] was 51 ± 6.8%. For the same molecule, the IC50 [2, 5] was 11100 nM.

Molecule ClC1=C(Cl)C2(Cl)C3C4C=CC(C4)C3C1(Cl)C2(Cl)Cl (stereo not shown) [aldrin] has an IC50 [1, 4] of 390 nM and an IC50 [2, 5] of 2170 nM.

dihydroprogesterone was tested, and the “% min act” value [1, 6] was 11 ± 2%, the IC50 [1, 7] was 395 nM and the “activity profile on hMR (agonist / partial agonist / antagonist)” value ([1]; in words, UG5LN-GAL4-hMR cells) was “full antagonists”. For the same molecule, the “% min act” value [2] was 5 ± 0.5%, the IC50 [2, 8] was 186 nM and the “activity profile on zfMR (agonist / partial agonist / antagonist)” value [2, 9] was “full antagonists”.

Bisphenol C was tested, and the “% min act” value [1, 3] was 51 ± 6%, the IC50 [1, 4] was 13200 nM and the IC50 [2, 5] was 11800 nM.

With ClC1=C(Cl)[C@]2(Cl)[C@H]3[C@H]([C@H](Cl)C(Cl)[C@@H]3Cl)[C@@]1(Cl)C2(Cl)Cl (stereo partly shown) [transnonachlore] the “% min act” value [1, 3] was 10 ± 0.9%, the IC50 [1, 4] was 610 nM and the “% min act” value [2] was 57.8 ± 9%.

For O=C1C2(Cl)C3(Cl)C4(Cl)C(Cl)(Cl)C5(Cl)C3(Cl)C1(Cl)C5(Cl)C24Cl (stereo not shown) [chlordecone], the “% min act” value [1, 3] was 8.4 ± 1%, the IC50 [1, 4] was 1210 nM and the “% min act” value [2] was 28.6 ± 0.3%. It also gave an IC50 [2, 5] of 5590 nM.

For CC(C)(c1ccc(O)cc1)c1ccc(O)c(Cl)c1 [2-chloro-bisphenol A], the “% min act” value [1, 3] was 12 ± 8.7%, the IC50 [1, 4] was 1360 nM and the “% min act” value ([2]; environmental chemicals at 10^−5 M, antagonism test, % of maximal luciferase activity induced by 10^−8 M aldosterone) was 13.2 ± 1.3%. For the same molecule, the IC50 [2, 5] was 4300 nM.

Nonylphenol mixture was tested, and the “% min act” value [1, 3] was 12 ± 2.5%, the IC50 [1, 4] was 1560 nM and the “% min act” value [2] was 40.7 ± 4.8%. For the same molecule, the IC50 [2, 5] was 9200 nM.
